In patent US20110294766A1, “16 Alpha, 17 Alpha-Acetal Glucocorticosteroidal Derivatives and their Use” (AstraZeneca AB, priority 2008, published 2011):

Each compound was assayed against T1, recombinant human GR (Homo sapiens, UniProt P04150) (assay: Human Glucocorticoid Receptor (GR) Assay (fluorescence polarization, Panvera/Invitrogen kit)). Conditions: GS Red tracer, 2 hours at room temperature, 100% control 10 μM Dexamethasone, read-out: Inhibition of GR binding, IC50.
T1 construct: purchased Panvera/Invitrogen P2812 (kit P2893)
T1 sequence (P04150 1-777): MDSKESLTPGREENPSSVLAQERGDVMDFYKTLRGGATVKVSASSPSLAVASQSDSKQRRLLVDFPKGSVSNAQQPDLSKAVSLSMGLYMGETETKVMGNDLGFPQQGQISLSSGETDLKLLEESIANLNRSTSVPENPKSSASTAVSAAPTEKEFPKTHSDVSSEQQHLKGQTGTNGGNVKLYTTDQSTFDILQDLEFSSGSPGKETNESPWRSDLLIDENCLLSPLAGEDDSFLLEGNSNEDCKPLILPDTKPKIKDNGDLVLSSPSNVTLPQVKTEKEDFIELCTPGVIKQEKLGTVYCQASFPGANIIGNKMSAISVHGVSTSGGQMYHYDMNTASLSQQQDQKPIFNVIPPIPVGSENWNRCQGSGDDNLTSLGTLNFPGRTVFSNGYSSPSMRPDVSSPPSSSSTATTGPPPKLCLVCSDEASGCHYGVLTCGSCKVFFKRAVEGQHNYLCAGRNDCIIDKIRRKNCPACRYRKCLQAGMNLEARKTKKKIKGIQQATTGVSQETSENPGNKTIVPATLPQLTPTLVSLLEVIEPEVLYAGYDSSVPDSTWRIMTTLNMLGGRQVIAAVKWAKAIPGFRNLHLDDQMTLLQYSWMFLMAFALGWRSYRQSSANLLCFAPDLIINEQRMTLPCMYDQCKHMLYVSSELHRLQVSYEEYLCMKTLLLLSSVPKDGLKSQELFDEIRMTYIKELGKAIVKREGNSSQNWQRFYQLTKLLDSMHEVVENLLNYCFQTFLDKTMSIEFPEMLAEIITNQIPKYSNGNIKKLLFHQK
Experimental: Human Glucocorticoid Receptor (GR) Assay The assay is based on a commercial kit from Panvera/Invitrogen (Part number P2893). The assay technology is fluorescence polarization. The kit utilises recombinant human GR (Panvera, Part number P2812), a Fluoromone™ labelled tracer (GS Red, Panvera, Part number P2894) and a Stabilizing Peptide 10× (Panvera, Part number P2815). The GR and Stabilizing Peptide reagents are stored at −70° C. while the GS Red is stored at −20° C. Also included in the kit are 1M DTT (Panvera, Part number P2325, stored at −20° C.) and GR Screening buffer 10× (Panvera, Part number P2814, stored at −70° C. initially but once thawed stored at room temperature). Avoid repeated freeze/thaws for all reagents. The GR Screening buffer 10× comprises 100 mM potassium phosphate, 200 mM sodium molybdate, 1 mM EDTA and 20% DMSO. Test compounds (1 μL) and controls (1 μL) in 100% DMSO were added to black polystyrene 384-well plates (Greiner low volume black flat-bottom, part number 784076). 0% control was 100% DMSO and 100% control was 10 μM Dexamethasone. Background solution (8 μL; assay buffer 10×, Stabilizing Peptide, DTT and ice cold MQ water) was added to the background wells. GS Red solution (7 μL; assay buffer 10×, Stabilizing Peptide, DTT, GS Red and ice cold water) was added to all wells except background wells. GR solution (7 μL; assay buffer 10×, Stabilizing Peptide, DTT, GR and ice cold water) was added to all wells. The plate was sealed and incubated in a dark at room temperature for 2 hours. The plate was read in an Analyst plate reader (LJL Biosystems/Molecular Devices Corporation) or other similar plate reader capable of recording fluorescence polarization (excitation wavelength 530 nm, emission wavelength 590 nm and a dichroic mirror at 561 nm).

**Q.** Which IC50 does the source give for `CSC(=O)[C@@]12OC(c3ccc(F)cc3F)O[C@@H]1C[C@H]1[C@@H]3C[C@H](F)C4=CC(=O)C=C[C@]4(C)[C@@]3(F)[C@@H](O)C[C@@]12C` (stereo partly drawn) [Example 5, S-Methyl (4aS,4bR,5S,6aS,6bS,9aR,10aS,10bS,12S)-8-(2,4-difluorophenyl)-4b,12-difluoro-5-hydroxy-4a,6a-dimethyl-2-oxo-2,4a,4b,5,6,6a,9a,10,10a,10b,11,12-dodecahydro-6bH-naphtho[2′,1′:4,5]indeno[1,2-d][1,3]dioxole-6b-carbothioate] here?
**A.** 1.1 nM

**Q.** For `C[C@]12C=CC(=O)C=C1[C@@H](F)C[C@H]1[C@@H]3C[C@H]4OC(c5ccc(Cl)cc5)O[C@@]4(C(=O)SCC#N)[C@@]3(C)C[C@H](O)[C@@]12F` (stereo partly drawn) [Example 28, S-(Cyanomethyl)(4aS,4bR,5S,6aS,6bS,9aR,10aS,10bS,12S)-8-(4-chlorophenyl)-4b,12-difluoro-5-hydroxy-4a,6a-dimethyl-2-oxo-2,4a,4b,5,6,6a,9a,10,10a,10b,11,12-dodecahydro-6bH-naphtho[2′,1′,4,5]indeno[1,2-d][1,3]dioxole-6b-carbothioate], which IC50 is on record?
**A.** 1.3 nM

**Q.** How did the IC50 turn out when `Cc1ccc(C2O[C@@H]3C[C@H]4[C@@H]5C[C@H](F)C6=CC(=O)C=C[C@]6(C)[C@@]5(F)[C@@H](O)C[C@]4(C)[C@]3(C(=O)SCC#N)O2)o1` (stereo partly drawn) [Example 10, S-(Cyanomethyl)(4aS,4bR,5S,6aS,6bS,9aR,10aS,10bS,12S)-4b,12-difluoro-5-hydroxy-4a,6a-dimethyl-8-(5-methyl-2-furyl)-2-oxo-2,4a,4b,5,6,6a,9a,10,10a,10b,11,12-dodecahydro-6bH-naphtho[2′,1′:4,5]indeno[1,2-d][1,3]dioxole-6b-carbothioate] was run?
**A.** 1.1 nM

**Q.** How did the IC50 turn out when `C[C@]12C=CC(=O)C=C1[C@@H](F)C[C@H]1[C@@H]3C[C@H]4OC(c5ccc(Cl)o5)O[C@@]4(C(=O)SCF)[C@@]3(C)C[C@H](O)[C@@]12F` (stereo partly drawn) [Example 11, S-(Fluoromethyl)(4aS,4bR,5S,6aS,6bS,9aR,10aS,10bS,12S)-8-(5-chloro-2-furyl)-4b,12-difluoro-5-hydroxy-4a,6a-dimethyl-2-oxo-2,4a,4b,5,6,6a,9a,10,10a,10b,11,12-dodecahydro-6bH-naphtho[2′,1′:4,5]indeno[1,2-d][1,3]dioxole-6b-carbothioate] was run?
**A.** 0.59 nM

**Q.** For `C[C@]12C=CC(=O)C=C1CC[C@@H]1[C@@H]2[C@@H](O)C[C@@]2(C)[C@H]1C[C@H]1OC(c3ccco3)O[C@]12C(=O)SCF` (stereo partly drawn) [Example 34, S-(Fluoromethyl)(4aR,4bS,5S,6aS,6bS,9aR,10aS,10bS)-8-furan-2-yl-5-hydroxy-4a,6a-dimethyl-2-oxo-2,4a,4b,5,6,6a,9a,10,10a,10b,11,12-dodecahydro-6bH-naphtho[2′,1′:4,5]indeno[1,2-d][1,3]dioxole-6b-carbothioate], which IC50 is on record?
**A.** 1 nM

**Q.** Which IC50 does the source give for `Cc1noc(C)c1C1O[C@@H]2C[C@H]3[C@@H]4C[C@H](F)C5=CC(=O)C=C[C@]5(C)[C@@]4(F)[C@@H](O)C[C@]3(C)[C@]2(C(=O)SCF)O1` (stereo partly drawn) [Example 33, S-(Fluoromethyl)(4aS,4bR,5S,6aS,6bS,9aR,10aS,10bS,12S)-8-(3,5-dimethylisoxazol-4-yl)-4b,12-difluoro-5-hydroxy-4a,6a-dimethyl-2-oxo-2,4a,4b,5,6,6a,9a,10,10a,10b,11,12-dodecahydro-6bH-naphtho[2′,1′:4,5]indeno[1,2-d][1,3]dioxole-6b-carbothioate] here?
**A.** 1 nM

**Q.** `C[C@]12C=CC(=O)C=C1CC[C@@H]1[C@@H]2[C@@H](O)C[C@@]2(C)[C@H]1C[C@H]1OC(c3ccc(C(F)(F)F)cc3)O[C@]12C(=O)SCF` (stereo partly drawn) [Example 40, S-(Fluoromethyl)(4aR,4bS,5S,6aS,6bS,9aR,10aS,10bS)-5-hydroxy-4a,6a-dimethyl-2-oxo-8-[4-(trifluoromethyl)phenyl]-2,4a,4b,5,6,6a,9a,10,10a,10,11,12-dodecahydro-6bH-naphtho[2′,1′:4,5]indeno[1,2-d][1,3]dioxole-6b-carbothioate] was tested. Which IC50 did it give?
**A.** 1.7 nM

**Q.** With `Cc1ccsc1C1O[C@@H]2C[C@H]3[C@@H]4C[C@H](F)C5=CC(=O)C=C[C@]5(C)[C@@]4(F)[C@@H](O)C[C@]3(C)[C@]2(C(=O)SCF)O1` (stereo partly drawn) [Example 13, S-(Fluoromethyl)(4aS,4bR,5S,6aS,6bS,9aR,10aS,10bS,12S)-4b,12-difluoro-5-hydroxy-4a,6a-dimethyl-8-(3-methyl-2-thienyl)-2-oxo-2,4a,4b,5,6,6a,9a,10,10a,10b,11,12-dodecahydro-6bH-naphtho[2′,1′:4,5]indeno[1,2-d][1,3]dioxole-6b-carbothioate] as the compound, how does the IC50 read?
**A.** 0.55 nM

**Q.** For `C[C@]12C=CC(=O)C=C1[C@@H](F)C[C@H]1[C@@H]3C[C@H]4OC(c5cc6ccccc6o5)O[C@@]4(C(=O)SCF)[C@@]3(C)C[C@H](O)[C@@]12F` (stereo partly drawn) [Example 12, S-(Fluoromethyl)(4aS,4bR,5S,6aS,6bS,9aR,10aS,10bS,12S)-8-(1-benzofuran-2-yl)-4b,12-difluoro-5-hydroxy-4a,6a-dimethyl-2-oxo-2,4a,4b,5,6,6a,9a,10,10a,10b,11,12-dodecahydro-6bH-naphtho[2′,1′:4,5]indeno[1,2-d][1,3]dioxole-6b-carbothioate], which IC50 is on record?
**A.** 0.86 nM

**Q.** Which IC50 does the source give for `C[C@]12C=CC(=O)C=C1CC[C@@H]1[C@@H]2[C@@H](O)C[C@@]2(C)[C@H]1C[C@H]1OC(c3ccccc3F)O[C@]12C(=O)SCC#N` (stereo partly drawn) [Example 42, S-(Cyanomethyl)(4aR,4bS,5S,6aS,6bS,9aR,10aS,10bS)-8-(2-fluorophenyl)-5-hydroxy-4a,6a-dimethyl-2-oxo-2,4a,4b,5,6,6a,9a,10,10a,10b,11,12-dodecahydro-6bH-naphtho[2′,1′:4,5]indeno[1,2-d][1,3]dioxole-6b-carbothioate] here?
**A.** 1.5 nM

**Q.** Which IC50 does the source give for `COc1ccc([C@@H]2O[C@@H]3C[C@H]4[C@@H]5CCC6=CC(=O)C=C[C@]6(C)[C@H]5[C@@H](O)C[C@]4(C)[C@]3(C(=O)SC)O2)c(F)c1` [Example 38 (8R), S-Methyl (4aR,4bS,5S,6aS,6bS,8R,9aR,10aS,10bS)-8-(2-fluoro-4-methoxyphenyl)-5-hydroxy-4a,6a-dimethyl-2-oxo-2,4a,4b,5,6,6a,9a,10,10a,10b,11,12-dodecahydro-6bH-naphtho[2′,1′:4,5]indeno[1,2-d][1,3]dioxole-6b-carbothioate] here?
**A.** 2.2 nM

**Q.** Which IC50 does the source give for `C[C@]12C=CC(=O)C=C1[C@@H](F)C[C@H]1[C@@H]3C[C@H]4OC(c5ccco5)O[C@@]4(C(=O)SCC#N)[C@@]3(C)C[C@H](O)[C@@]12F` (some centres unmarked) [Example 1] here?
**A.** 1.2 nM

**Q.** How did the IC50 turn out when `C[C@]12C=CC(=O)C=C1[C@@H](F)C[C@H]1[C@@H]3C[C@H]4OC(c5cccc(C#N)c5)O[C@@]4(C(=O)SCC#N)[C@@]3(C)C[C@H](O)[C@@]12F` (stereo partly drawn) [Example 25, S-(Cyanomethyl)(4aS,4bR,5S,6aS,6bS,9aR,10aS,10bS,12S)-8-(3-cyanophenyl)-4b,12-difluoro-5-hydroxy-4a,6a-dimethyl-2-oxo-2,4a,4b,5,6,6a,9a,10,10a,10b,11,12-dodecahydro-6bH-naphtho[2′,1′:4,5]indeno[1,2-d][1,3]dioxole-6b-carbothioate] was run?
**A.** 0.7 nM

**Q.** For `C[C@]12C=CC(=O)C=C1[C@@H](F)C[C@H]1[C@@H]3C[C@H]4OC(c5ccc(C(F)(F)F)cc5)O[C@@]4(C(=O)SCC#N)[C@@]3(C)C[C@H](O)[C@@]12F` (stereo partly drawn) [Example 20, S-(Cyanomethyl)(4aS,4bR,5S,6aS,6bS,9aR,10aS,10bS,12S)-4b,12-difluoro-5-hydroxy-4a,6a-dimethyl-2-oxo-8-[4-(trifluoromethyl)phenyl]-2,4a,4b,5,6,6a,9a,10,10a,10b,11,12-dodecahydro-6bH-naphtho[2′,1′:4,5]indeno[1,2-d][1,3]dioxole-6b-carbothioate], which IC50 is on record?
**A.** 2.4 nM
